Laboratory results from patent publication US12383545B1, “Treatment of migraine” (priority 2018, dated 2025).

System: participants with episodic migraine
Experiment: Study B: phase 3 randomized open-label 52-week long-term safety trial, eDiary efficacy (atogepant arm)
Assay type: in vivo, human
Conditions: for Change from Baseline in Monthly Acute Medication Use Days, LS means - MMRM / Monthly Acute Medication Use Days, Observed Mean: Atogepant 60 mg QD, mITT Population
Description: Study B: A phase 3, multicenter, randomized, open label study was conducted to evaluate the long-term safety and tolerability of oral atogepant for the prevention of migraine in participants with episodic migraine (Study B). The study objective was to evaluate the safety and tolerability of daily treatment with atogepant 60 mg QD when administered over 52 weeks for the prevention of migraine in participants with episodic migraine.
FIG. 12 provides a schematic for the long-term safety study design. The study comprised a 4-week baseline/screening period, followed by a 52-week open-label treatment period, and a 4-week safety follow-up period.
A total of 744 participants from 106 sites were randomized in a ratio of 5:2 to the following treatment groups: atogepant 60 mg QD or oral standard of care (SOC) migraine prevention medication. The latter arm was included to contextualize safety data from the atogepant-treated participants, and efficacy measures were collected from the atogepant arm only. Efficacy measures were evaluated using the modified intent-to-treat (mITT) population and a mixed-effects model for repeated measures and included changes from baseline in monthly migraine days (MDDs), moderate/severe headache days, and acute medication use days, as well as the proportion of responders based on reductions in MMDs.
A total of 739 patients (n=546 atogepant) were included in the safety population.
All Screened Participants include those screened participants that signed informed consent forms. The Intent-to-Treat Population (ITT) includes all of the randomized participants. The safety population includes all participants who received at least one dose of study intervention (atogepant or SOC medication).
Efficacy endpoints for this study included change from baseline in monthly migraine days at each monthly period; change from baseline in monthly headache days at each monthly period; change from baseline in monthly acute medication use days at each monthly period; and ≥50% improvement (reduction) in monthly migraine days at each monthly period.

[1] = Study B, 60 mg QD, Weeks 1-4, mITT
[2] = Study B, 60 mg QD, Weeks 5-8, mITT
[3] = Study B, 60 mg QD, Weeks 9-12, mITT
[4] = Study B, 60 mg QD, Weeks 13-16, mITT
[5] = Study B, 60 mg QD, Weeks 17-20, mITT
[6] = Study B, 60 mg QD, Weeks 21-24, mITT
[7] = Study B, 60 mg QD, Weeks 25-28, mITT
[8] = Study B, 60 mg QD, Weeks 29-32, mITT
[9] = Study B, 60 mg QD, Weeks 33-36, mITT
[10] = Study B, 60 mg QD, Weeks 37-40, mITT
[11] = Study B, 60 mg QD, Weeks 41-44, mITT
[12] = Study B, 60 mg QD, Weeks 45-48, mITT
[13] = Study B, 60 mg QD, Weeks 49-52, mITT
[14] = Study B, 60 mg QD, weeks 49-52, participants who remained in the trial

C[C@@H]1[C@H](c2c(F)ccc(F)c2F)C[C@H](NC(=O)c2cnc3c(c2)C[C@@]2(C3)C(=O)Nc3ncccc32)C(=O)N1CC(F)(F)F [atogepant]
Monthly headache days, change from baseline, LS means (95% CI) - MMRM [1]: -4.00 days | Monthly headache days, observed mean (SD) [1]: 4.40 days | Monthly migraine days, change from baseline, LS means (95% CI) - MMRM [1]: -3.84 days | Monthly migraine days, observed mean (SD) [1]: 3.47 days | ≥50% improvement (reduction) in monthly migraine days, responder n/N1 (%) [1]: (60.4) % | Monthly headache days, change from baseline, LS means (95% CI) - MMRM [2]: -4.40 days | Monthly headache days, observed mean (SD) [2]: 3.97 days | Monthly migraine days, change from baseline, LS means (95% CI) - MMRM [2]: -4.15 days | Monthly migraine days, observed mean (SD) [2]: 3.13 days | ≥50% improvement (reduction) in monthly migraine days, responder n/N1 (%) [2]: (65.1) % | Monthly headache days, change from baseline, LS means (95% CI) - MMRM [3]: -4.80 days | Monthly headache days, observed mean (SD) [3]: 3.51 days | Monthly migraine days, change from baseline, LS means (95% CI) - MMRM [3]: -4.38 days | Monthly migraine days, observed mean (SD) [3]: 2.85 days | ≥50% improvement (reduction) in monthly migraine days, responder n/N1 (%) [3]: (70.2) % | Monthly headache days, change from baseline, LS means (95% CI) - MMRM [4]: -5.12 days | Monthly headache days, observed mean (SD) [4]: 3.19 days | Monthly migraine days, change from baseline, LS means (95% CI) - MMRM [4]: -4.69 days | Monthly migraine days, observed mean (SD) [4]: 2.52 days | ≥50% improvement (reduction) in monthly migraine days, responder n/N1 (%) [4]: (74.1) % | Monthly headache days, change from baseline, LS means (95% CI) - MMRM [5]: -5.35 days | Monthly headache days, observed mean (SD) [5]: 2.84 days | Monthly migraine days, change from baseline, LS means (95% CI) - MMRM [5]: -4.76 days | Monthly migraine days, observed mean (SD) [5]: 2.33 days | ≥50% improvement (reduction) in monthly migraine days, responder n/N1 (%) [5]: (73.5) % | Monthly headache days, change from baseline, LS means (95% CI) - MMRM [6]: -5.30 days | Monthly headache days, observed mean (SD) [6]: 2.87 days | Monthly migraine days, change from baseline, LS means (95% CI) - MMRM [6]: -4.72 days | Monthly migraine days, observed mean (SD) [6]: 2.37 days | ≥50% improvement (reduction) in monthly migraine days, responder n/N1 (%) [6]: (75.3) % | Monthly headache days, change from baseline, LS means (95% CI) - MMRM [7]: -5.42 days | Monthly migraine days, change from baseline, LS means (95% CI) - MMRM [7]: -4.85 days | Monthly migraine days, observed mean (SD) [7]: 2.20 days | ≥50% improvement (reduction) in monthly migraine days, responder n/N1 (%) [7]: (75.1) % | Monthly headache days, change from baseline, LS means (95% CI) - MMRM [8]: -5.41 days | Monthly headache days, observed mean (SD) [8]: 2.52 days | Monthly migraine days, change from baseline, LS means (95% CI) - MMRM [8]: -4.82 days | Monthly migraine days, observed mean (SD) [8]: 2.12 days | ≥50% improvement (reduction) in monthly migraine days, responder n/N1 (%) [8]: (76.7) % | Monthly headache days, change from baseline, LS means (95% CI) - MMRM [9]: -5.62 days | Monthly headache days, observed mean (SD) [9]: 2.47 days | Monthly migraine days, change from baseline, LS means (95% CI) - MMRM [9]: -4.95 days | Monthly migraine days, observed mean (SD) [9]: 2.06 days | ≥50% improvement (reduction) in monthly migraine days, responder n/N1 (%) [9]: (80.5) % | Monthly headache days, change from baseline, LS means (95% CI) - MMRM [10]: -5.69 days | Monthly headache days, observed mean (SD) [10]: 2.45 days | Monthly migraine days, change from baseline, LS means (95% CI) - MMRM [10]: -4.97 days | Monthly migraine days, observed mean (SD) [10]: 2.08 days | ≥50% improvement (reduction) in monthly migraine days, responder n/N1 (%) [10]: (78.1) % | Monthly headache days, change from baseline, LS means (95% CI) - MMRM [11]: -5.66 days | Monthly headache days, observed mean (SD) [11]: 2.45 days | Monthly migraine days, change from baseline, LS means (95% CI) - MMRM [11]: -4.95 days | Monthly migraine days, observed mean (SD) [11]: 2.09 days | ≥50% improvement (reduction) in monthly migraine days, responder n/N1 (%) [11]: (78.5) % | Monthly headache days, change from baseline, LS means (95% CI) - MMRM [12]: -5.90 days | Monthly headache days, observed mean (SD) [12]: 2.23 days | Monthly migraine days, change from baseline, LS means (95% CI) - MMRM [12]: -5.13 days | Monthly migraine days, observed mean (SD) [12]: 1.91 days | ≥50% improvement (reduction) in monthly migraine days, responder n/N1 (%) [12]: (82.4) % | Monthly headache days, change from baseline, LS means (95% CI) - MMRM [13]: -5.99 days | Monthly headache days, observed mean (SD) [13]: 2.13 days | Monthly migraine days, change from baseline, LS means (95% CI) - MMRM [13]: -5.19 days | Monthly migraine days, observed mean (SD) [13]: 1.84 days | ≥50% improvement (reduction) in monthly migraine days, responder n/N1 (%) [13]: 84.2% | ≥50% improvement (reduction) in monthly migraine days, responder n/N1 (%) (Study B, 60 mg QD, Weeks 49-52, mITT, listed as Atogepant): (84.2) % | participants with 100% reduction in MMDs [14]: 48.4% | participants with ≥75% reduction in MMDs [14]: 69.9% | reduction from baseline in monthly migraine days (Study B, 60 mg, month 1, given as reduction): approximately 4 days | Change from Baseline in Monthly Acute Medication Use Days, LS means - MMRM (Weeks 1-4): -4.04 days | Monthly Acute Medication Use Days, Observed Mean (Weeks 1-4): 2.60 days | Change from Baseline in Monthly Acute Medication Use Days, LS means - MMRM (Weeks 5-8): -4.11 days | Monthly Acute Medication Use Days, Observed Mean (Weeks 5-8): 2.49 days | Change from Baseline in Monthly Acute Medication Use Days, LS means - MMRM (Weeks 9-12): -4.18 days | Monthly Acute Medication Use Days, Observed Mean (Weeks 9-12): 2.39 days | Change from Baseline in Monthly Acute Medication Use Days, LS means - MMRM (Weeks 13-16): -4.46 days | Monthly Acute Medication Use Days, Observed Mean (Weeks 13-16): 2.09 days | Change from Baseline in Monthly Acute Medication Use Days, LS means - MMRM (Weeks 17-20): -4.56 days | Monthly Acute Medication Use Days, Observed Mean (Weeks 17-20): 1.92 days | Change from Baseline in Monthly Acute Medication Use Days, LS means - MMRM (Weeks 21-24): -4.49 days | Monthly Acute Medication Use Days, Observed Mean (Weeks 21-24): 2.01 days | Change from Baseline in Monthly Acute Medication Use Days, LS means - MMRM (Weeks 25-28): -4.59 days | Monthly Acute Medication Use Days, Observed Mean (Weeks 25-28): 1.90 days | Change from Baseline in Monthly Acute Medication Use Days, LS means - MMRM (Weeks 29-32): -4.54 days | Monthly Acute Medication Use Days, Observed Mean (Weeks 29-32): 1.84 days | Change from Baseline in Monthly Acute Medication Use Days, LS means - MMRM (Weeks 33-36): -4.66 days | Monthly Acute Medication Use Days, Observed Mean (Weeks 33-36): 1.75 days | Change from Baseline in Monthly Acute Medication Use Days, LS means - MMRM (Weeks 37-40): -4.68 days | Monthly Acute Medication Use Days, Observed Mean (Weeks 37-40): 1.75 days | Change from Baseline in Monthly Acute Medication Use Days, LS means - MMRM (Weeks 41-44): -4.71 days | Monthly Acute Medication Use Days, Observed Mean (Weeks 41-44): 1.69 days | Change from Baseline in Monthly Acute Medication Use Days, LS means - MMRM (Weeks 45-48): -4.90 days | Monthly Acute Medication Use Days, Observed Mean (Weeks 45-48): 1.51 days | Change from Baseline in Monthly Acute Medication Use Days, LS means - MMRM (Weeks 49-52): -4.93 days | Monthly Acute Medication Use Days, Observed Mean (Weeks 49-52): 1.50 days
